# Results: patent US20240254087A1, “SELECTIVE, PARTIAL, AND ARRESTIN-BIASED 5-HT2A AGONISTS WITH UTILITY IN VARIOUS DISORDERS” (Saint Joseph's University, priority 2021, published 2024)
# Counter-ions that a name gives are not always drawn.
# Experiments:
# 5-HT2A [1] = test: Ca2+ flux assay, 5-HT2A; type: cell-based, human; details: Gq/11 Ca2+ mobilization; higher number = skewed towards 5-HT2A
# Method: (§1) Cell lines were maintained in DMEM containing 10% FBS, 10 μg/mL Blasticidin (Invivogen), and 100 μg/mL Hygromycin B (GoldBio). At least 20-24 hours before the assay, receptor expression was induced with tetracycline ([…]) and cells were seeded into 384-well poly-L-lysine-coated black plates at a density of 7,500 cells/well in DMEM containing 1% dialyzed FBS. On the day of the assay, the cells were incubated for 1 h at 37° C. with Fluo-4 Direct dye (Invitrogen, 20 μl/well) reconstituted in drug buffer (20 mM HEPES-buffered HBSS, pH 7.4) containing 2.5 mM probenecid. Drug dilutions were prepared at 5X final concentration in McCorvy buffer (20 mM HEPES-buffered HBSS, 0).1% BSA, 0.01% ascorbic acid pH 7.4). After dye load, cells were allowed to equilibrate to room temperature for 15 minutes, and then placed in a FLIPR^TETRA fluorescence imaging plate reader (Molecular Devices). Fluorescence for the FLIPR^TETRA were programmed to read baseline fluorescence for 10 s (1 read/s), and afterward 5 μl of drug per well was added and read for a total of 5-10 min (1 read/s). Fluorescence in each well was normalized to the average of the first 10 reads for baseline fluorescence, and then either maximum-fold peak increase over basal or area under the curve (AUC) was calculated. […] Data was plotted and non-linear regression was performed using “log(agonist) vs. response” in Graphpad Prism 8 to yield Emax and EC50 parameter estimates.
# 5-HT1A = biological target: T1, 5-HT1A (Homo sapiens, UniProt P08908); test: Competitive radioligand binding (NIMH PDSP)
# T1 sequence (P08908 1-422): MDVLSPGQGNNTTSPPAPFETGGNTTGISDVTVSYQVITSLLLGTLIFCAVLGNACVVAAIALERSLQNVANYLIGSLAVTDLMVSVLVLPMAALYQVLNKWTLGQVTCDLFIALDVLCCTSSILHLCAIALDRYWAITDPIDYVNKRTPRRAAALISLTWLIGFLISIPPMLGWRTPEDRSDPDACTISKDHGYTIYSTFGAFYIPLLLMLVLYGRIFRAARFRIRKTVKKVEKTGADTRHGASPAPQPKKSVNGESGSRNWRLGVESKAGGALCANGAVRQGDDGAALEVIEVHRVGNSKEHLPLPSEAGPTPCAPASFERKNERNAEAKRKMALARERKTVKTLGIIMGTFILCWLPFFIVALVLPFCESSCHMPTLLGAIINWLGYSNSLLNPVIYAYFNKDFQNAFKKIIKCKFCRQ
# Method: (§2) Method 1: Competitive binding experiments were performed by the National Institute of Mental Health Psychoactive Drug Screening Program (NIMH PDSP) using described methods or 5-HT2A experiments performed using [3H]-ketanserin displacement in human 5-HT2A expressing membranes. Target compounds were dissolved in DMSO and an initial screen performed to assess displacement of the radioligand from target receptors at a concentration of 10,000 nM. […] For the Ki experiments, compounds were always tested in triplicate on separate plates. Each plate also contained a known ligand for the receptor as a positive control.
# 5-HT1B = 5-HT1B (Homo sapiens, UniProt P28222); test: Competitive radioligand binding (NIMH PDSP)
# Sequence of 5-HT1B (P28222 whole entry, species assumed): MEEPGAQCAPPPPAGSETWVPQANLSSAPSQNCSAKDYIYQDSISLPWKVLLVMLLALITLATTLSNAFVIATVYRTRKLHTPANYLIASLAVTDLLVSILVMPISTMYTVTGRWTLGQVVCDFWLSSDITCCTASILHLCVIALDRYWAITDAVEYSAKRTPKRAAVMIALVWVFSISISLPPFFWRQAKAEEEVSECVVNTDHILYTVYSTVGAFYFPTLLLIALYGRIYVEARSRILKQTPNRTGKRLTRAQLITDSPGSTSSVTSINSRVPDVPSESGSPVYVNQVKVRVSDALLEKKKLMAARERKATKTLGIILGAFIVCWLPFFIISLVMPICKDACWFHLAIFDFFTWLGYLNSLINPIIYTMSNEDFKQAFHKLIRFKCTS
# Method: as §2
# 5-HT1D = 5-HT1D (Homo sapiens, UniProt P28221); test: Competitive radioligand binding (NIMH PDSP)
# Sequence of 5-HT1D (P28221 whole entry, species assumed): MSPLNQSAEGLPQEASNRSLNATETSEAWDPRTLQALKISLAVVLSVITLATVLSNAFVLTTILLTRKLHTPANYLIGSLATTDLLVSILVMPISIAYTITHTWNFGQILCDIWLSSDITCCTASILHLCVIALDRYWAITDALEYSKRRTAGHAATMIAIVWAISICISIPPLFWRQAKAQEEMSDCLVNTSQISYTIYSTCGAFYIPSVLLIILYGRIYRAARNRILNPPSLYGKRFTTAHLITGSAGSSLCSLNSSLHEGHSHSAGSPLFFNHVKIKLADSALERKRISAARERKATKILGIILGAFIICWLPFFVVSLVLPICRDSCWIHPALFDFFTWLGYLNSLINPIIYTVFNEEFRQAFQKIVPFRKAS
# Method: as §2
# 5-HT1e = 5-HT1e (Homo sapiens, UniProt P28566); test: Competitive radioligand binding (NIMH PDSP)
# Sequence of 5-HT1e (P28566 whole entry, species assumed): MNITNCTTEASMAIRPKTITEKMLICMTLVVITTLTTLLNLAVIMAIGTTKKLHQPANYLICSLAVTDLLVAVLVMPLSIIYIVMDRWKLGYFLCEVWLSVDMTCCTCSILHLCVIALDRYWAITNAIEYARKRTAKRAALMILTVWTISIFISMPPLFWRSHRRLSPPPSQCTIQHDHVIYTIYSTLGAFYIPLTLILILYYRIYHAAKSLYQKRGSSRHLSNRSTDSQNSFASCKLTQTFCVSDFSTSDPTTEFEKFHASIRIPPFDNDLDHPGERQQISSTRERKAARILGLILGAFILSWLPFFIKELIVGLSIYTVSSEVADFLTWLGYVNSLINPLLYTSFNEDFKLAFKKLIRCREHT
# Method: as §2
# 5-HT2A [2] = biological target: T2, 5-HT2A (Homo sapiens, UniProt P28223); test: Competitive radioligand binding (NIMH PDSP)
# T2 sequence (P28223 whole entry): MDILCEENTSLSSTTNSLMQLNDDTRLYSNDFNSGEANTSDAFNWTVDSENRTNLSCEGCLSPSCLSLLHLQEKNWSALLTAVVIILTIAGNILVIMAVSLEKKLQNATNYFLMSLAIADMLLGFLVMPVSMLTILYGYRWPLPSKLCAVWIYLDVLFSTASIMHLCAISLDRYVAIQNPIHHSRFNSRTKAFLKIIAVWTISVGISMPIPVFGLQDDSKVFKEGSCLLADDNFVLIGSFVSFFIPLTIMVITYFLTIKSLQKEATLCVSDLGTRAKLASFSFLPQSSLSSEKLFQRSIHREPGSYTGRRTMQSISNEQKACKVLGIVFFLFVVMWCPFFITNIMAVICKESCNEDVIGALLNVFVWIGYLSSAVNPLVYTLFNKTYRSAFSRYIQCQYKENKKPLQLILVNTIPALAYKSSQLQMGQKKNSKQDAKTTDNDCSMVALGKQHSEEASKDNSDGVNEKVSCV
# Method: as §2
# 5-HT3 = biological target: T3, 5-HT3 (Homo sapiens, UniProt P46098); test: Competitive radioligand binding (NIMH PDSP)
# T3 sequence (P46098 24-478): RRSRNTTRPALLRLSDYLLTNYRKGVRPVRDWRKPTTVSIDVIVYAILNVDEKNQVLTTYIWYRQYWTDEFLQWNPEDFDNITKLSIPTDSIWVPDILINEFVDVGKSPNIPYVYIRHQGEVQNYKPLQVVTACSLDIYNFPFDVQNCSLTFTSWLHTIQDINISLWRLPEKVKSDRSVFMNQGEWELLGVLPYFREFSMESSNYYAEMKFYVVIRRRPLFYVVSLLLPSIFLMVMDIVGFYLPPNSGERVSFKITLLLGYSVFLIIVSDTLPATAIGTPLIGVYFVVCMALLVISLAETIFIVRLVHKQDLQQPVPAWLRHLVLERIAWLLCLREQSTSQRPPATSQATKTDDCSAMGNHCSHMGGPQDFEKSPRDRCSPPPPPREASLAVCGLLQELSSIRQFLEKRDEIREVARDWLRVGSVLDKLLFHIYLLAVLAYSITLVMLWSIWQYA
# Method: as §2
# 5-HT2A [3] = biological target: T2, 5-HT2A; test: Ca2+ flux assay, 5-HT2A; type: cell-based; design: expressed in transfected cells; details: for EC50: 5-HT2A EC50, nM, Ca2+ flux; for Emax: read-out: 5-HT2A Emax % 5-HT, Ca2+ flux
# Method: as §1
# 5-HT2B [4] = biological target: T4, 5-HT2B (Homo sapiens, UniProt P41595); test: Ca2+ flux assay, 5-HT2B; type: cell-based; design: expressed in transfected cells; details: Ca2+ flux; for Emax: read-out: 5-HT2B Emax % 5-HT
# T4 sequence (P41595 whole entry): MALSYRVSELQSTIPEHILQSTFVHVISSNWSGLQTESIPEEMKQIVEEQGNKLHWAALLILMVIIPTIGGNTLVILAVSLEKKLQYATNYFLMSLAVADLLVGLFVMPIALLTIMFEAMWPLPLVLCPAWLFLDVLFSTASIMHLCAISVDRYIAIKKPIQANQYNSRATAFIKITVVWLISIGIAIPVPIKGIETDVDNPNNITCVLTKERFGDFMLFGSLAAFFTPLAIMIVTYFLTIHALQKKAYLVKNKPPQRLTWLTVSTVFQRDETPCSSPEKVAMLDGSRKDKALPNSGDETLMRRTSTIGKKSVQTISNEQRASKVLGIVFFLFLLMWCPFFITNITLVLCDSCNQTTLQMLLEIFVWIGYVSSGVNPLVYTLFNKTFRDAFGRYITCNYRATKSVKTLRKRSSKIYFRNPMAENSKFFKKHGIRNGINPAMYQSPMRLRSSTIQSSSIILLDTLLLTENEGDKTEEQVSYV
# Method: as §1
# 5-HT2C [5] = biological target: T5, 5-HT2C (Homo sapiens, UniProt P28335); test: Ca2+ flux assay, 5-HT2C; type: cell-based; design: expressed in transfected cells; details: for Emax: read-out: 5-HT2C Emax % 5-HT
# T5 sequence (P28335 33-458): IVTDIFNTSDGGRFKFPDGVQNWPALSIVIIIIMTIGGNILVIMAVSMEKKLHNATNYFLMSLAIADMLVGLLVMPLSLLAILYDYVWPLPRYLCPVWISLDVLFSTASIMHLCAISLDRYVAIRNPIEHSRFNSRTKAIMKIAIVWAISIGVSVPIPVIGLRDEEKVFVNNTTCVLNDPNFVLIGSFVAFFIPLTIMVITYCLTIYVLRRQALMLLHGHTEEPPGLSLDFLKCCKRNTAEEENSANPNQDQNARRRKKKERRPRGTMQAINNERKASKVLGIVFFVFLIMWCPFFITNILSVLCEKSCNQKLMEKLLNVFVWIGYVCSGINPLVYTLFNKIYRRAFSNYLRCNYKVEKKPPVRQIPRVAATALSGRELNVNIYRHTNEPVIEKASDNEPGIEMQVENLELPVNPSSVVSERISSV
# Method: as §1
# 5-HT2B [6] = biological target: T4, 5-HT2B; test: Competitive radioligand binding (NIMH PDSP); design: expressed in transfected cells
# Method: as §2
# 5-HT2C [7] = biological target: T5, 5-HT2C; test: Competitive radioligand binding (NIMH PDSP); design: expressed in transfected cells
# Method: as §2
# 5-HT2A [8] = biological target: T2, 5-HT2A; test: [3H]-ketanserin displacement, 5-HT2A membranes; type: binding; design: ES-313-M400UA (membranes); host or cells: CHO-K1; details: [3H]-ketanserin displacement (n = 2); read-out: 5-HT2A pKi Mean ± SEM (converted)
smiles,measurement,setting,value
"COc1cc([N+](=O)[O-])c(OC)cc1CCNCc1ccc(C)cc1 [25N-NB-4-Me (23), [2-(2,5-dimethoxy-4-nitrophenyl)ethyl] [(4-methylphenyl)methyl]amine]",5-HT2A/5-HT2c Selectivity Factor ΔLog(Emax/EC50),5-HT2A [1],66.1
same,Ki,5-HT1A,2630 nM
same,Ki,5-HT1B,> 10000 nM
same,Ki,5-HT1D,> 10000 nM
same,Ki,5-HT1e,> 10000 nM
same,Ki,5-HT2A [2],5.5 nM
same,Ki,5-HT3,> 10000 nM
same,EC50,5-HT2A [3],38.3 nM
same,Emax,5-HT2A [3],42 ± 3%
same,"5-HT2B EC50, nM",5-HT2B [4],No activity
same,Emax,5-HT2B [4],< 10%
same,EC50,"5-HT2C [5]; 5-HT2C EC50, nM",844 nM
same,Emax,5-HT2C [5],14 ± 1%
same,Ki,5-HT2B [6],52.5 nM
same,Ki,5-HT2C [7],631 nM
"COc1cc([N+](=O)[O-])c(OC)cc1CCNCc1ccccc1C(F)(F)F (as salt: HCl) [25N-NBCF3 (14), [2-(2,5-dimethoxy-4-nitrophenyl)ethyl]({[2-(trifluoromethyl)phenyl]methyl}) amine]",melting point,,156.7 to 159.1 °C
"COc1cc(OC)c(OC)cc1CCNCc1cccc(I)c1 (as salt: HCl) [(53), N-(3-iodobenzyl)-2-(2,4,5-trimethoxyphenyl)-ethan-1-amine]",melting point,,155.5 to 156.1 °C
"COc1cc([N+](=O)[O-])c(OC)cc1CCNCc1cccc(F)c1 (as salt: HCl) [25N-NB-3-F (24), [2-(2,5-dimethoxy-4-nitrophenyl)ethyl][(3-fluorophenyl)methyl]amine]",melting point,,216.2 to 217.5 °C
"COc1cc(OC)c(OC)cc1CCNCc1cccc2ccsc12 [(73), N-(benzo[b]thiophen-7-ylmethyl)-2-(2,4,5-trimethoxyphenyl)-ethan-1-amine]",Ki,5-HT2A [8],29.5 nM
"COc1cc([N+](=O)[O-])c(OC)cc1CCNCc1ccc(F)cc1 [25N-NB-4-F (25), [2-(2,5-dimethoxy-4-nitrophenyl)ethyl][(4-fluorophenyl)methyl]amine]",5-HT2A/5-HT2c Selectivity Factor ΔLog(Emax/EC50),5-HT2A [1],43.3
same,Ki,5-HT1A,> 10000 nM
same,Ki,5-HT1B,> 10000 nM
same,Ki,5-HT1D,> 10000 nM
same,Ki,5-HT1e,> 10000 nM
same,Ki,5-HT2A [2],6.17 nM
same,Ki,5-HT3,> 10000 nM
same,EC50,5-HT2A [3],19.7 nM
same,Emax,5-HT2A [3],48 ± 2%
same,"5-HT2B EC50, nM",5-HT2B [4],No activity
same,Emax,5-HT2B [4],< 10%
same,EC50,"5-HT2C [5]; 5-HT2C EC50, nM",413 nM
same,Emax,5-HT2C [5],21 ± 2%
same,Ki,5-HT2B [6],85.1 nM
same,Ki,5-HT2C [7],813 nM
"COc1cc([N+](=O)[O-])c(OC)cc1CCNCc1ccccc1O (as salt: HCl) [25N-NBOH (3), 2-({[2-(2,5-dimethoxy-4-nitrophenyl)ethyl]amino}methyl)phenol]",melting point,,205 to 206.7 °C
COc1cc(OC)c(OC)cc1CCNC(C)c1cccc2ccccc12 (stereo not drawn) (as salt: HCl),melting point,,195.2 to 196.4 °C
"COc1cc([N+](=O)[O-])c(OC)cc1CCNCc1cccc(O)c1 (as salt: HCl) [25N-NB-3-OH (21), 3-({[2-(2,5-dimethoxy-4-nitrophenyl)ethyl]amino}methyl)phenol]",melting point,,194 to 195.5 °C
"COc1cc(OC)c(OC)cc1CCNCc1ccccc1-c1cccs1 (as salt: HCl) [(59), N-(2-(thiophen-2-yl)benzyl)-2-(2,4,5-trimethoxyphenyl)-ethan-1-amine]",melting point,,158.4 to 159.8 °C
"COc1cc([N+](=O)[O-])c(OC)cc1CCNCc1ccccc1[N+](=O)[O-] (as salt: HCl) [25N-NBNO2 (15), [2-(2,5-dimethoxy-4-nitrophenyl)ethyl][(2-nitrophenyl)methyl]amine]",melting point,,200.5 to 201.7 °C
"COc1cc([N+](=O)[O-])c(OC)cc1CCNCc1cccc2c1OC(F)(F)O2 [25N-NBMDF2 (13), [(2,2-difluoro-2H-1,3-benzodioxol-4-yl)methyl][2-(2,5-dimethoxy-4-nitrophenyl)ethyl]amine]",5-HT2A/5-HT2c Selectivity Factor ΔLog(Emax/EC50),5-HT2A [1],252.5
same,Ki,5-HT1A,1000 nM
same,Ki,5-HT1B,> 10000 nM
same,Ki,5-HT1D,> 10000 nM
same,Ki,5-HT1e,> 10000 nM
same,Ki,5-HT2A [2],1.2 nM
same,Ki,5-HT3,> 10000 nM
same,EC50,5-HT2A [3],3.02 nM
same,Emax,5-HT2A [3],86 ± 2%
same,"5-HT2B EC50, nM",5-HT2B [4],No activity
same,Emax,5-HT2B [4],< 10%
same,EC50,5-HT2C [5]; 5-HT2C (pEC50 ± SEM),437 nM
same,EC50,"5-HT2C [5]; 5-HT2C EC50, nM",431 nM
same,Emax,5-HT2C [5],49 ± 4%
same,Ki,5-HT2B [6],46.8 nM
same,Ki,5-HT2C [7],214 nM
"COc1cc([N+](=O)[O-])c(OC)cc1CCNCc1cccc2ccccc12 (as salt: HCl) [25N-N-1-Nap (16), [2-(2,5-dimethoxy-4-nitrophenyl)ethyl][(naphthalen-1-yl)methyl]amine]",melting point,,191.8 to 192.3 °C
"COc1cc([N+](=O)[O-])c(OC)cc1CCNCc1cccc(F)c1 [25N-NB-3-F (24), [2-(2,5-dimethoxy-4-nitrophenyl)ethyl][(3-fluorophenyl)methyl]amine]",5-HT2A/5-HT2c Selectivity Factor ΔLog(Emax/EC50),5-HT2A [1],154.4
same,Ki,5-HT1A,> 10000 nM
same,Ki,5-HT1B,> 10000 nM
same,Ki,5-HT1D,> 10000 nM
same,Ki,5-HT1e,> 10000 nM
same,Ki,5-HT2A [2],3.02 nM
same,Ki,5-HT3,> 10000 nM
same,EC50,5-HT2A [3],2.25 nM
same,Emax,5-HT2A [3],85 ± 2%
same,"5-HT2B EC50, nM",5-HT2B [4],No activity
same,Emax,5-HT2B [4],< 10%
same,EC50,"5-HT2C [5]; 5-HT2C EC50, nM",149 nM
same,Emax,5-HT2C [5],54 ± 1%
same,Ki,5-HT2B [6],42.7 nM
same,Ki,5-HT2C [7],224 nM
"COc1cc([N+](=O)[O-])c(OC)cc1CCNCc1cccc(F)c1OC (as salt: HCl) [25N-NB-2-MeO-3-F (19), [2-(2,5-dimethoxy-4-nitrophenyl)ethyl][(3-fluoro-2-methoxyphenyl)methyl]amine]",melting point,,155 to 156.7 °C
